Measured values as given in paper PMC10531311, “Anti-Inflammatory Activities of 8-Benzylaminoxanthines Showing High Adenosine A2A and Dual A1/A2A Receptor Affinity” (International Journal of Molecular Sciences, 2023).
“Also recorded” adds a separate entry of the source.

System: BV-2 cells
Assay: Phagocytic activity, IncuCyte pHrodo
Type: cell-based
Details: 1 µM; BV-2, LPS 1 μg/mL; apoptotic Jurkat target cells
Procedure: For the evaluation of phagocytic activity, compound 22 (MZ1490) was chosen as the most promising one on the basis of the results from the Griess assay. This compound was tested at a concentration of 1 µM, and phagocytosis was monitored in real time using an IncuCyte® pHrodo® Red Cell Labeling Kit (catalog no. 4766, Sartorius, Göttingen, Germany). […] It is interesting to note that the phagocytic activity exerted by untreated BV-2 cells is also related to the serum concentration. A healthy CNS maintains the BBB, and microglia are often highly ramified surveillance microglia without enhanced phagocytosis. […]
Phagocytosis was monitored in real time using the IncuCyte® pHrodo® Red Cell Labeling Kit. The principle of this test is based on the ability of the pHrodo to emit fluorescence in an acidic environment, which is precisely the environment inside the phagosome. If effector cells engulf labeled target cells and these enter the acidic phagosome, a substantial increase in fluorescence is observed. In this way, we can quantify phagocytosis. […] After this time, the labeled Jurkat apoptotic cells were added to the BV-2 cells at a density of 100,000 cells/well and the cells were monitored in an IncuCyte Live-Cell Analysis System. Repeat scanning to record phase and fluorescence images was carried out every 1 h, for up to 22 h. […]

## C#CCn1c(=O)c2c(nc(NCc3c(F)cccc3Cl)n2C)n(C)c1=O [compound 22, 8-((2-Chloro-6-fluorobenzyl)amino)-3,7-dimethyl-1-(prop-2-yn-1-yl)-3,7-dihydro-1H-purine-2,6-dione]
  effect on phagocytosis (in words): protects microglia from LPS-induced inflammation and, therefore, also from phagocytosis; also recorded: protected from phagocytosis
